# Source: US20090181948A1, “DIAMINE DERIVATIVE” (KYOWA HAKKO KOGYO CO., LTD., priority 2005, published 2009)
# Molecular target: T1, histamine H3 receptor (Rattus norvegicus, UniProt Q9QYN8)
# T1 construct: from tissue; host or cells: rat striatum (Sprague-Dawley, male, 6 weeks), membrane homogenate
# Assay: Histamine H3 receptor binding assay ([3H]-Nα-methylhistamine binding to rat striatum homogenate)
# Conditions: 1 μmol/L test compound; [3H]-Nα-methylhistamine 1 nmol/L; striata of Sprague-Dawley male rats, 25° C., 1 hour; read-out: Inhibition ratio of [3H]-Nα-methylhistamine binding
# Experimental: To the striata of Sprague-Dawley male rats (6 weeks of age), a 10-fold volume of lysis buffer {50 mmol/L [[…] (Tris)]/HCl (pH 7.4), 5 mmol/L ethylenediaminetetraacetic acid (EDTA), a protease inhibitor mixture [1 mg/mL phenylmethylsulfonyl fluoride (PMSF), 1 μg/mL pepstatin A, 1 μg/mL leupeptin, 1 μg/mL chymostatin]} was added and the striata were homogenized. The resulting homogenate was centrifuged (30,000×g, 4° C., 30 min), and the obtained precipitate was resuspended in a 10-fold volume of lysis buffer, followed by centrifugation under the same condition. To the obtained precipitate, a 3-fold volume of lysis buffer was added to suspend the precipitate, and the resulting tissue homogenate was used for a test.
# A test compound was dissolved in an assay buffer [50 mmol/L Tris/HCl (pH 7.4), 5 mmol/L EDTA], and [^3H]-N^α-methylhistamine (1 nmol/L) and the tissue homogenate (20 μg, in terms of protein amount) were added thereto, and then, the mixture was incubated at 25° C. for 1 hour. Then, the reaction was terminated by rapid suction filtration on a glass filter [GF/B: Whatman, previously soaked in 0.3 w/v % polyethylenimine for about 30 min]. Then, the glass filter was washed three times with 3 mL of assay buffer. This glass filter was transferred into a scintillation vial and dried at 60° C. for 30 minutes. Then, 0.5 mL of Ultimagold (Perkin Elmer) was added thereto, and the radioactivity (binding amount of [^3H]-N^α-methylhistamine) was measured using a liquid scintillation counter. The obtained value was used as a binding amount in the presence of the test compound. The same procedure as described above was carried out in the absence of the test compound, and the binding amount of [^3H]-N^α-methylhistamine obtained at this time was used as a binding amount in the absence of the test compound. Further, the binding amount of [^3H]-N^α-methylhistamine obtained in the presence of 10 μmol/L thioperamide was used as a non-specific binding amount. An inhibitory action of [^3H]-N^α-methylhistamine binding was represented by an inhibition ratio in terms of 1 μmol/L of the test compound calculated by the following Equation (1).
# Inhibition ratio(%)={1−[(Binding amount in the presence of test compound)−(Non-specific binding amount)]/[(Binding amount in the absence of test compound)−(Non-specific binding amount)]}×100 (1)
# T1 sequence (Q9QYN8 whole entry): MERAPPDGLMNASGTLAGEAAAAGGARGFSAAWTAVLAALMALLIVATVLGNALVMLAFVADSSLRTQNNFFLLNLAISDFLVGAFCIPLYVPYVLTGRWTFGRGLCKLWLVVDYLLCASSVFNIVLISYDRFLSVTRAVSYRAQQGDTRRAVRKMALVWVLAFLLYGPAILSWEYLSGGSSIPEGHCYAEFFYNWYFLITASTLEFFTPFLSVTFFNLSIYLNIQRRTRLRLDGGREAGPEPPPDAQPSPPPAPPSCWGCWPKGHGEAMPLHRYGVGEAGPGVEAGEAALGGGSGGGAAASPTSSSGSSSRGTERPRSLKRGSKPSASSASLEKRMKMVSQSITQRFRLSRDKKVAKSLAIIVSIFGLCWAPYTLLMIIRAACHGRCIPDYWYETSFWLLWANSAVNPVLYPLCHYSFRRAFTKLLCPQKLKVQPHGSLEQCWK
row,SMILES,inhibition at 1 µM
1,"CC1CC(C)CN(CCCN2CCN(CCCN3CC=CCC3)C2=C(C#N)C#N)C1 (stereo not shown) [Compound 91, {1-[3-(1,2,3,6-Tetrahydropyridin-1-yl)propyl]-3-[3-(3,5-dimethylpiperidino)propyl]imidazolidin-2-ylidene}malononitrile]",≥ 80%
2,"CC1CCCN1CCCN1CCN(CCCN2CCC(=O)CC2)C1=C(C#N)C#N (stereo not shown) [Compound 203, {1-[3-(2-Methylpyrrolidin-1-yl)propyl]-3-[3-(4-oxopiperidino)propyl]imidazolidin-2-ylidene}malononitrile]",≥ 80%
3,"C[C@@H]1CCCN1CCN1CCN(CCCN2CCC[C@@H]2C)C1=C(C#N)S(=O)(=O)c1ccccc1 [Compound 243, {3-[2-((R)-2-methylpyrrolidin-1-yl)ethyl]-1-[3-((S)-2-methylpyrrolidin-1-yl)propyl]imidazolidin-2-ylidene}benzenesulfonylacetonitrile]",≥ 80%
4,"N#CC(C#N)=C(NCCCN1CCC(F)(F)C1)N1CCC(N2CCCCC2)CC1 [Compound 168, {[3-(3,3-Difluoropyrrolidin-1-yl)propylamino](4-piperidinopiperidino)methylene}malononitrile]",≥ 80%
5,"CC1CCCN1CCCNC(=C(C#N)C#N)N1CCC(CN2CCCCC2)CC1 (stereo not shown) [Compound 173, {[3-(2-Methylpyrrolidin-1-yl)propylamino](4-piperidinomethylpiperidino)methylene}malononitrile]",≥ 80%
6,"C[C@H]1CCCN1CCN(C)C(=C(C#N)C#N)N1CCC(CN2CCCCC2)CC1 [Compound 153, ({N-methyl-N-[2-((S)-2-methylpyrrolidin-1-yl)ethyl]amino}(4-piperidinomethylpiperidino)methylene)malononitrile]",≥ 80%
7,"CC1CCCCN1CCCN1CCN(CCCN2CCCCC2)C1=C(C#N)C#N (stereo not shown) [Compound 98, {1-[3-(2-Methylpiperidino)propyl]-3-(3-piperidinopropyl)imidazolidin-2-ylidene}malononitrile]",≥ 80%
8,"CC1CC(C)CN(CCCN2CCN(CCCN3CCCCCC3)C2=C(C#N)C#N)C1 (stereo not shown) [Compound 70, {1-[3-(Azepan-1-yl)propyl]-3-[3-(3,5-dimethylpiperidino)propyl]imidazolidin-2-ylidene}malononitrile]",≥ 80%
9,"CC1CC(C)CN(CCCN2CCN(CCN3CC(C)CC(C)C3)C2=C(C#N)C#N)C1 (stereo not shown) [Compound 17, {1-[2-(3,5-Dimethylpiperidino)ethyl]-3-[3-(3,5-dimethylpiperidino)propyl]imidazolidin-2-ylidene}malononitrile]",≥ 80%
10,"CN1CCN(CCCN2CCN(CCCN3CCCCC3)C2=C(C#N)C#N)CC1 [Compound 76, {1-[3-(4-Methylpiperazin-1-yl)propyl]-3-(3-piperidinopropyl)imidazolidin-2-ylidene}malononitrile]",≥ 80%
11,"CC1CC(C)CN(CCN2CCN(CCCN3CCC(C#N)CC3)C2=C(C#N)C#N)C1 (stereo not shown) [Compound 42, {1-[3-(4-Cyanopiperidino)propyl]-3-[2-(3,5-dimethylpiperidino)ethyl]imidazolidin-2-ylidene}malononitrile]",≥ 80%
12,"CC1CCCN1CCCN1CCN(CCCN2CC=CCC2)C1=C(C#N)C#N (stereo not shown) [Compound 92, {1-[3-(1,2,3,6-Tetrahydropyridin-1-yl)propyl]-3-[3-(2-methylpyrrolidin-1-yl)propyl]imidazolidin-2-ylidene}malononitrile]",≥ 80%
13,"CC1CCCN1CCCN1CCN(CCCN2CCCC2C)C1=C(C#N)S(=O)(=O)c1ccccc1 (stereo not shown) [Compound 244, {1,3-Bis[3-(2-methylpyrrolidin-1-yl)propyl]imidazolidin-2-ylidene}benzenesulfonylacetonitrile]",≥ 80%
14,"C[C@@H]1CCCN1CCCN1CCN(CCCN2CCC[C@@H]2C)C1=C(C#N)S(=O)(=O)c1ccccc1 [Compound 246, {1-[3-((S)-2-methylpyrrolidin-1-yl)propyl]-3-[3-((R)-2-methylpyrrolidin-1-yl)propyl]imidazolidin-2-ylidene}benzenesulfonylacetonitrile]",≥ 80%
15,"CC1CCCN1CCCNC(=C(C#N)C#N)N1CCC(CN2CCCC2C)CC1 (stereo not shown) [Compound 174, {[4-(2-Methylpyrrolidin-1-ylmethyl)piperidino][3-(2-methylpyrrolidin-1-yl)propylamino]methylene}malononitrile]",≥ 80%
16,"CC(C)N1CCC(N2CCN(CCCN3CCCC3C)C2=C(C#N)C#N)CC1 (stereo not shown) [Compound 219, {1-(1-Isopropylpiperidin-4-yl)-3-[3-(2-methylpyrrolidin-1-yl)propyl]imidazolidin-2-ylidene}malononitrile]",≥ 80%

row,SMILES,inhibition at 1 µM
1,"CC(C)N1CCC(CN2CCN(CCCN3CCCCC3)C2=C(C#N)C#N)CC1 [Compound 133, {1-[(1-Isopropylpiperidin-4-yl)methyl]-3-(3-piperidinopropyl)imidazolidin-2-ylidene}malononitrile]",≥ 80%
2,"C[C@@H]1C[C@H](C)CN(CCN2CCN(CCCN3CC=CCC3)C2=C(C#N)C#N)C1 [Compound 27, {1-[3-(1,2,3,6-Tetrahydropyridin-1-yl)propyl]-3-[2-(cis-3,5-dimethylpiperidino)ethyl]imidazolidin-2-ylidene}malononitrile]",≥ 80%
3,"N#CC(C#N)=C1N(CCN2CCCCC2)CCN1CCN1CCCCC1 [Compound 5, [1,3-Bis(2-piperidinoethyl)imidazolidin-2-ylidene]malononitrile]",≥ 80%
4,"N#CC(C#N)=C(NCCCN1CCCCC1)NCCCN1CCCCC1 [Compound 2, [Bis(3-piperidinopropylamino)methylene]malononitrile]",≥ 80%
5,"CC1CCCN1CCCNC(=C(C#N)C#N)N1CCC(N2CCCCC2)CC1 (stereo not shown) [Compound 170, {[3-(2-Methylpyrrolidin-1-yl)propylamino](4-piperidinopiperidino)methylene}malononitrile]",≥ 80%
6,"CC1CCCN(CCCN2CCN(CCCN3CCOCC3)C2=C(C#N)C#N)C1 (stereo not shown) [Compound 80, {1-[3-(3-Methylpiperidino)propyl]-3-(3-morpholinopropyl)imidazolidin-2-ylidene}malononitrile]",≥ 80%
7,"N#CC(C#N)=C1N(CCCN2CCCCCC2)CCN1CCCN1CCCC1 [Compound 69, {1-[3-(Azepan-1-yl)propyl]-3-[3-(pyrrolidin-1-yl)propyl]imidazolidin-2-ylidene}malononitrile]",≥ 80%
8,"CC1CCCN1CCN1CCN(CCCN2CCCC2)C1=C(C#N)C#N (stereo not shown) [Compound 54, {1-[2-(2-Methylpyrrolidin-1-yl)ethyl]-3-[3-(3-pyrrolidin-1-yl)propyl]imidazolidin-2-ylidene}malononitrile]",≥ 80%
9,"C[C@H]1CCCN1CCCCN1CCN(CCN2CCC[C@@H]2C)C1=C(C#N)C#N [Compound 190, {1-[4-((S)-2-methylpyrrolidin-1-yl)butyl]-3-[2-((S)-2-methylpyrrolidin-1-yl)ethyl]imidazolidin-2-ylidene}malononitrile]",≥ 80%
10,"CC1CCCN1CCCN1CCN(CCCN2CCCC2)C1=C(C#N)C#N (stereo not shown) [Compound 97, {1-[3-(2-Methylpyrrolidin-1-yl)propyl]-3-[3-(pyrrolidin-1-yl)propyl]imidazolidin-2-ylidene}malononitrile]",≥ 80%
11,"C=CCN1CCC(N2CCN(CCCN3CCCCC3)C2=C(C#N)C#N)CC1 [Compound 227, [1-(1-Allylpiperidin-4-yl)-3-(3-piperidinopropyl)imidazolidin-2-ylidene]malononitrile]",≥ 80%
12,"N#CC(C#N)=C1N(CCCN2CC=CCC2)CCN1CCCN1CCCC1 [Compound 89, {1-[3-(1,2,3,6-Tetrahydropyridin-1-yl)propyl]-3-[3-(pyrrolidin-1-yl)propyl]imidazolidin-2-ylidene}malononitrile]",≥ 80%
13,"N#CC(C#N)=C1N(CCCN2CCCCC2)CCN1CCCN1CCC(O)C1 (stereo not shown) [Compound 101, {1-[3-(3-Hydroxypyrrolidin-1-yl)propyl]-3-(3-piperidinopropyl)imidazolidin-2-ylidene}malononitrile]",≥ 80%
14,"N#CC(C#N)=C1N(CCCN2CCOCC2)CCN1C1CCN(CCF)CC1 [Compound 222, {1-[1-(2-Fluoroethyl)piperidin-4-yl]-3-(3-morpholinopropyl)imidazolidin-2-ylidene}malononitrile]",≥ 80%
15,"CC1CCN(CCCN2CCN(CCCN3CCCCC3)C2=C(C#N)C#N)CC1 [Compound 100, {1-[3-(4-Methylpiperidino)propyl]-3-(3-piperidinopropyl)imidazolidin-2-ylidene}malononitrile]",≥ 80%
